In article PMC8703412 (Pharmaceuticals, 2021):
Values after ≈ are worked out from the molar mass of the structure shown. Like-named read-outs stand apart in the source and are kept apart here.

How the values were obtained:
[1] = tested on: Mycobacterium tuberculosis strain 331/88 (i.e., H37Rv); assay: MIC micromethod in Šula's medium, drug-susceptible Mtb.; type: cell-based
[2] = tested on: Mycobacterium avium 330/88; assay: MIC micromethod in Šula's medium, M. avium; type: cell-based
[3] = tested on: Mycobacterium kansasii 6509/96 (clinical isolate); assay: MIC micromethod in Šula's medium, M. kansasii; type: cell-based; conditions: Mycobacterium kansasii
[4] = Cytotoxicity, CellTiter 96 (MTS) assay; conditions: human, Cytotoxicity for HepG2 cells, IC50, 24 h incubation, 1–1000 µM
[5] = Mycobacterium tuberculosis, H37RV, 336 h, 14 d incubation, esters, Table 1, read-out: MIC Mtb. 331/88 14 d
[6] = Mycobacterium tuberculosis, H37RV, 504 h, 21 d incubation, esters, Table 1, read-out: MIC Mtb. 331/88 21 d
[7] = Mycobacterium avium, 330/88, 336 h, 14 d incubation, Table 1, read-out: MIC M. avium 330/88 14 d
[8] = Mycobacterium avium, 330/88, 504 h, 21 d incubation, Table 1, read-out: MIC M. avium 330/88 21 d
[9] = 168 h, 7 d incubation, Table 1, read-out: MIC M. kansasii 6509/96 7 d
[10] = 336 h, 14 d incubation, Table 1, read-out: MIC M. kansasii 6509/96 14 d
[11] = 504 h, 21 d incubation, Table 1, read-out: MIC M. kansasii 6509/96 21 d
[12] = Mycobacterium tuberculosis, H37RV, 336 h, 14 d incubation, precursors, Table 2, read-out: MIC Mtb. 331/88 14 d
[13] = Mycobacterium tuberculosis, H37RV, 504 h, 21 d incubation, precursors, Table 2, read-out: MIC Mtb. 331/88 21 d
[14] = Mycobacterium avium, 330/88, 336 h, 14 d incubation, precursors, Table 2, read-out: MIC M. avium 330/88 14 d
[15] = Mycobacterium avium, 330/88, 504 h, 21 d incubation, precursors, Table 2, read-out: MIC M. avium 330/88 21 d
[16] = 168 h, 7 d incubation, precursors, Table 2, read-out: MIC M. kansasii 6509/96 7 d
[17] = 336 h, 14 d incubation, precursors, Table 2, read-out: MIC M. kansasii 6509/96 14 d
[18] = 504 h, 21 d incubation, precursors, Table 2, read-out: MIC M. kansasii 6509/96 21 d
[19] = Mycobacterium avium, 330/88, 336 h, read-out: MIC M. avium 330/88 14 d
[20] = Mycobacterium avium, 330/88, 504 h, read-out: MIC M. avium 330/88 21 d
[21] = 168 h, read-out: MIC M. kansasii 6509/96 7 d
[22] = 336 h, read-out: MIC M. kansasii 6509/96 14 d
[23] = 504 h, read-out: MIC M. kansasii 6509/96 21 d

SMILES	MIC [1, 5]	MIC [1, 6]	MIC [2, 7]	MIC [2, 8]	MIC [3, 9]	MIC [3, 10]	IC50 at 24 h [4]	MIC [1, 12]	MIC [1, 13]	MIC [2, 14]	MIC [2, 15]	MIC [3, 17]	MIC [3, 18]	MIC [3, 21]	MIC [3, 23]	also measured
C/C(=N\NC(=O)c1ccncc1)C(=O)OCCn1c([N+](=O)[O-])cnc1C [3q, 2-(2-Methyl-5-nitro-1H-imidazol-1-yl)ethyl (E)-2-(2 isonicotinoylhydrazineylidene)propanoate]	0.25 µM (≈ 0.0901 µg/mL)	0.5 µM (≈ 0.18 µg/mL)	500 µM (≈ 180 µg/mL)	1000 µM (≈ 360 µg/mL)	2 µM (≈ 0.721 µg/mL)	4 µM (≈ 1.44 µg/mL)	> 1000 µM	–	–	–	–	–	–	–	–	MIC [3, 11]: 4 µM (≈ 1.44 µg/mL); melting point: 123 to 125.7 °C
CCSC(=O)/C(C)=N/NC(=O)c1ccncc1 [3r, S-Ethyl (E)-2-(2-isonicotinoylhydrazineylidene)propanethioate]	0.25 µM (≈ 0.0628 µg/mL)	0.25 µM (≈ 0.0628 µg/mL)	250 µM (≈ 62.8 µg/mL)	500 µM (≈ 126 µg/mL)	1 µM (≈ 0.251 µg/mL)	2 µM (≈ 0.503 µg/mL)	> 1000 µM	–	–	–	–	–	–	–	–	MIC [3, 11]: 4 µM (≈ 1.01 µg/mL); melting point: 158 to 160 °C
C/C(=N\NC(=O)c1ccncc1)C(=O)Sc1ccccc1 [3s, S-Phenyl (E)-2-(2-isonicotinoylhydrazineylidene)propanethioate]	0.25 µM (≈ 0.0748 µg/mL)	0.25 µM (≈ 0.0748 µg/mL)	250 µM (≈ 74.8 µg/mL)	250 µM (≈ 74.8 µg/mL)	1 µM (≈ 0.299 µg/mL)	2 µM (≈ 0.599 µg/mL)	182 µM	–	–	–	–	–	–	–	–	MIC [3, 11]: 4 µM (≈ 1.2 µg/mL); melting point: 186 to 187 °C
Oc1ccc(Oc2ccccc2)cc1 [4-phenoxyphenol, reference compound]	–	–	–	–	–	–	–	64 µM (≈ 11.9 µg/mL)	64 µM (≈ 11.9 µg/mL)	250 µM (≈ 46.6 µg/mL)	500 µM (≈ 93.1 µg/mL)	64 µM (≈ 11.9 µg/mL)	125 µM (≈ 23.3 µg/mL)	–	–	MIC [3, 16]: 32 µM (≈ 5.96 µg/mL)
Cc1ccc(C(C)C)cc1O [Carvacrol, reference compound]	–	–	–	–	–	–	–	125 µM (≈ 18.8 µg/mL)	250 µM (≈ 37.6 µg/mL)	–	–	–	–	125 µM (≈ 18.8 µg/mL)	500 µM (≈ 75.1 µg/mL)	MIC [2, 19]: 250 µM (≈ 37.6 µg/mL); MIC [2, 20]: 500 µM (≈ 75.1 µg/mL); MIC [3, 22]: 250 µM (≈ 37.6 µg/mL)
NNC(=O)c1ccncc1 [INH 1, Isoniazid, reference compound]	1 µM (≈ 0.137 µg/mL)	1 µM (≈ 0.137 µg/mL)	> 250 µM	> 250 µM	8 µM (≈ 1.1 µg/mL)	8 µM (≈ 1.1 µg/mL)	> 1000 µM	–	–	–	–	8 µM (≈ 1.1 µg/mL)	8 µM (≈ 1.1 µg/mL)	–	16 µM (≈ 2.19 µg/mL)	MIC ([1]; 14 d incubation, precursors, Table 2, read-out: MIC Mtb. 331/88 14 d): 1 µM (≈ 0.137 µg/mL); MIC ([1]; 21 d incubation, precursors, Table 2, read-out: MIC Mtb. 331/88 21 d): 1 µM (≈ 0.137 µg/mL); MIC ([2]; 14 d incubation, precursors, Table 2, read-out: MIC M. avium 330/88 14 d): >250 µM; MIC ([2]; 21 d incubation, precursors, Table 2, read-out: MIC M. avium 330/88 21 d): >250 µM; MIC [3, 16]: 4 µM (≈ 0.549 µg/mL)
Cc1ncc([N+](=O)[O-])n1CCO [Metronidazole, reference compound]	–	–	–	–	–	–	–	> 1000 µM	> 1000 µM	> 1000 µM	> 1000 µM	> 1000 µM	> 1000 µM	–	–	MIC [3, 16]: 1000 µM (≈ 171 µg/mL)
CC(=O)Nc1ccc(O)cc1 [Paracetamol, reference compound]	–	–	–	–	–	–	–	> 1000 µM	> 1000 µM	> 1000 µM	> 1000 µM	–	–	–	–	–
Oc1cccc2cccnc12 [Quinolin-8-ol, reference compound]	–	–	–	–	–	–	–	8 µM (≈ 1.16 µg/mL)	8 µM (≈ 1.16 µg/mL)	–	–	–	–	16 µM (≈ 2.32 µg/mL)	32 µM (≈ 4.65 µg/mL)	MIC [2, 19]: 64 µM (≈ 9.29 µg/mL); MIC [2, 20]: 64 µM (≈ 9.29 µg/mL); MIC [3, 22]: 32 µM (≈ 4.65 µg/mL)
Cc1ccc(C(C)C)c(O)c1 [Thymol, reference compound]	–	–	–	–	–	–	–	64 µM (≈ 9.61 µg/mL)	125 µM (≈ 18.8 µg/mL)	250 µM (≈ 37.6 µg/mL)	500 µM (≈ 75.1 µg/mL)	250 µM (≈ 37.6 µg/mL)	500 µM (≈ 75.1 µg/mL)	125 µM (≈ 18.8 µg/mL)	–	–
Oc1cc(Cl)ccc1Oc1ccc(Cl)cc1Cl [Triclosan, 5-chloro-2-(2,4-dichlorophenoxy)phenol, reference compound]	–	–	–	–	–	–	–	32 µM (≈ 9.27 µg/mL)	32 µM (≈ 9.27 µg/mL)	–	–	–	–	16 µM (≈ 4.63 µg/mL)	32 µM (≈ 9.27 µg/mL)	MIC [2, 19]: 64 µM (≈ 18.5 µg/mL); MIC [2, 20]: 64 µM (≈ 18.5 µg/mL); MIC [3, 22]: 32 µM (≈ 9.27 µg/mL)
